# Reference: patent US8846694B2, “Pyrrolidone derivatives for use as MetAP-2 inhibitors” (Merck Patent GmbH, priority 2008, dated 2014)
# Where a name gives a salt, the structure may show the parent alone.
# Target: MetAP-2 (Homo sapiens, UniProt P50579)
# Assay: MetAP-2 activity measurement (coupled enzymatic reactions, substrate Met-Arg-Ser, photometric at 450 nm)
# Format: biochemical
# Settings: read-out: IC50 enzyme (Inhibition of MetAP-2)
# In short: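 Human MetAP-2 cleaves Met-Arg-Ser; the freed methionine is oxidized by L-amino acid oxidase, and the resulting H2O2 drives peroxidase oxidation of dianisidine, read continuously at 450 nm. Activity is taken as the slope in the visually linear region.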
# Sequence of MetAP-2 (P50579 whole entry, species assumed): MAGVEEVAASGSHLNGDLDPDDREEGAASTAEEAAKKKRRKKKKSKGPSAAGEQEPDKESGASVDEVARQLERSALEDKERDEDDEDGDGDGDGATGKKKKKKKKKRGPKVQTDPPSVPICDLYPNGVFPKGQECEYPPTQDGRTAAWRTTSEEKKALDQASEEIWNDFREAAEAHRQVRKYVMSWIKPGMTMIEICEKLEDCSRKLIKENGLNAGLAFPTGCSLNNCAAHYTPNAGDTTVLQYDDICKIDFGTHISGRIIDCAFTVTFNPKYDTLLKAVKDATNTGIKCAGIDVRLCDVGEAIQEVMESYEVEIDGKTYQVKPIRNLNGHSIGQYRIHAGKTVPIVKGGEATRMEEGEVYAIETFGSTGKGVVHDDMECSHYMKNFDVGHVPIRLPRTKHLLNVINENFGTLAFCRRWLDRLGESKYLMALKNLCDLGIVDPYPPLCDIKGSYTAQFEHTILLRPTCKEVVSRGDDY
row,IC50 [nM],Structure (SMILES)
1,10 to 1000,"CCCCOC(=O)c1cc(OC[C@H]2CCCN2c2ncnc3[nH]cnc23)c2cc(F)ccc2n1 [A139, Butyl 6-fluoro-4-[(R)-1-(9H-purin-6-yl)pyrrolidin-2-ylmethoxy]quinoline-2-carboxylate]"
2,10 to 1000,"O=[N+]([O-])c1ccc2cccc(OC[C@H]3CCCN3c3ncnc4[nH]cnc34)c2c1 [A142, 6-[(R)-2-(7-Nitronaphthalen-1-yloxymethyl)-pyrrolidin-1-yl]-9H-purine]"
3,10 to 1000,"CNc1ccccc1C(=O)OC[C@H]1CCCN1c1ncnc2[nH]cnc12 [A143, (R)-1-(9H-purin-6-yl)pyrrolidin-2-ylmethyl 2-methylaminobenzoate]"
4,10 to 1000,"Nc1ccc2cccc(OC[C@H]3CCCN3c3ncnc4[nH]cnc34)c2c1 [A144, 8-[(R)-1-(9H-Purin-6-yl)pyrrolidin-2-yl-methoxy]naphthalen-2-ylamine]"
5,10 to 1000,"c1cc(OC[C@H]2CCCN2c2ncnc3[nH]cnc23)c2cc(N3CCOCC3)ccc2c1 [A146, 6-[(R)-2-(7-Morpholin-4-ylnaphthalen-1-yl-oxymethyl)pyrrolidin-1-yl]-9H-purine]"
6,1000 to 10000,"Oc1ccc(OC[C@H]2CCCN2c2ncnc3[nH]c(F)nc23)c2ccccc12 [A147, 4-[(R)-1-(8-Fluoro-9H-purin-6-yl)pyrrolidin-2-yl-methoxy]naphthalen-1-ol]"
7,10 to 1000,"COC(=O)c1c(OC[C@H]2CCCN2c2ncnc3[nH]cnc23)c2cc(F)ccc2n1C [A151, Methyl 5-fluoro-1-methyl-3-[(R)-1-(9H-purin-6-yl)pyrrolidin-2-ylmethoxy]-1H-indole-2-carboxylate]"
8,> 10000,"COc1ccc(CCOc2cc3c(OC[C@H]4CCCN4c4ncnc5[nH]cnc45)ccc(CCc4ccc(OC)cc4)c3cc2C(=O)N(C)C)cc1 [A152, N,N-Dimethyl-3-[2-(4-methoxyphenyl)ethoxy]-8-[2-(4-methoxyphenyl)ethyl]-5-[(R)-1-(9H-purin-6-yl)pyrrolidin-2-ylmethoxy]naphthalene-2-carboxamide]"
9,1000 to 10000,"O=C(NCc1ccco1)Nc1ccc2cccc(OC[C@H]3CCCN3c3ncnc4[nH]cnc34)c2c1 [A159, 1-Furan-2-ylmethyl-3-{8-[(R)-1-(9H-purin-6-yl)-pyrrolidin-2-ylmethoxy]naphthalen-2-yl}urea]"
10,> 10000,"COC(=O)CC[C@H](NC(=O)OCc1ccccc1)C(=O)Nc1ccc2cccc(OC[C@H]3CCCN3c3ncnc4[nH]cnc34)c2c1 [A160, Methyl (S)-4-benzyloxycarbonylamino-4-{8-[(R)-1-(9H-purin-6-yl)pyrrolidin-2-ylmethoxy]-naphthalen-2-ylcarbamoyl}butyrate]"
11,1000 to 10000,"NC(=O)CC[C@H](N)C(=O)Nc1ccc2cccc(OC[C@H]3CCCN3c3ncnc4[nH]cnc34)c2c1 [A165, N-(1-({8-[(R)-1-(9H-Purin-6-yl)pyrrolidin-2-yl-methoxy]naphthalen-2-yl})-(S)-2-aminopentan-5-amide * HCl]"
12,1000 to 10000,"OC1CCN(C2CCc3cccc(OC[C@H]4CCCN4c4ncnc5[nH]cnc45)c3C2)C1 (stereo partly drawn) [A169, 1-{8-[(R)-1-(9H-Purin-6-yl)pyrrolidin-2-yl-methoxy]-1,2,3,4-tetrahydronaphthalen-2-yl}pyrrolidin-3-ol]"
13,10 to 1000,"OC1CN(C2CCc3cccc(OC[C@H]4CCCN4c4ncnc5[nH]cnc45)c3C2)C1 (stereo partly drawn) [A170, 1-{8-[(R)-1-(9H-Purin-6-yl)pyrrolidin-2-yl-methoxy]-1,2,3,4-tetrahydronaphthalen-2-yl}azetidin-3-ol]"
14,1000 to 10000,"CC(=O)NC1CCN(C2CCc3cccc(OC[C@H]4CCCN4c4ncnc5[nH]cnc45)c3C2)C1 (stereo partly drawn) [A171, N-(1-{8-[(R)-1-(9H-Purin-6-yl)pyrrolidin-2-yl-methoxy]-1,2,3,4-tetrahydronaphthalen-2-yl}pyrrolidin-3-yl)acetamide]"
15,1000 to 10000,"c1ccc2c(NCCN3CCOCC3)ncc(OC[C@H]3CCCN3c3ncnc4[nH]cnc34)c2c1 [A172, (2-Morpholin-4-ylethyl)-{4-[(R)-1-(9H-purin-6-yl)-pyrrolidin-2-ylmethoxy]isoquinolin-1-yl}amine]"
16,10 to 1000,"CN(C)C(=O)C[C@@H]1CCc2c(OC[C@H]3CCCN3c3ncnc4[nH]cnc34)cccc2C1=O [A174, N,N-Dimethyl-2-{(S)-1-oxo-5-[(R)-1-(9H-purin-6-yl)pyrrolidin-2-ylmethoxy]-1,2,3,4-tetrahydro-naphthalen-2-yl}acetamide]"

# Second part, the compound before the results:
row,Structure (SMILES),IC50 [nM]
1,"[O-][n+]1c(C(F)(F)F)cc(OC[C@H]2CCCN2c2ncnc3[nH]cnc23)c2cc(F)ccc21 [A140, 6-Fluoro-4-[(R)-1-(9H-purin-6-yl)pyrrolidin-2-yl-methoxy]-2-trifluoromethylquinoline 1-oxide]",10 to 1000
2,"O=C(O)c1cc(OC[C@H]2CCCN2c2ncnc3[nH]cnc23)c2cc(F)ccc2n1 [A141, 6-Fluoro-4-[(R)-1-(9H-purin-6-yl)pyrrolidin-2-yl-methoxy]quinoline-2-carboxylic acid]",10 to 1000
3,"CN1CCN(c2ccc3cccc(OC[C@H]4CCCN4c4ncnc5[nH]cnc45)c3c2)CC1 [A145, 6-{(R)-2-[7-(4-Methylpiperazin-1-yl)naphthalen-1-yloxymethyl]pyrrolidin-1-yl}-9H-purine]",1000 to 10000
4,"c1ccc2c(OC[C@H]3CCCN3c3ncnc4[nH]cnc34)cncc2c1 [A148, 4-[(R)-1-(9H-Purin-6-yl)pyrrolidin-2-yl-methoxy]isoquinoline]",10 to 1000
5,"O=C(NCCN1CCOCC1)c1cc(OC[C@H]2CCCN2c2ncnc3[nH]cnc23)c2ccccc2n1 [A149, N-(2-Morpholin-4-ylethyl)-4-[(R)-1-(9H-purin-6-yl)pyrrolidin-2-ylmethoxy]quinoline-2-carboxamide]",> 10000
6,"O=C(NCCCN1CCOCC1)c1cc(OC[C@H]2CCCN2c2ncnc3[nH]cnc23)c2ccccc2n1 [A150, N-(3-Morpholin-4-ylpropyl)-4-[(R)-1-(9H-purin-6-yl)pyrrolidin-2-ylmethoxy]quinoline-2-carboxamide]",10 to 1000
7,"Clc1ccc(-n2ccc(OC[C@H]3CCCN3c3ncnc4[nH]cnc34)n2)c(Cl)c1 [A153, 6-{(R)-2-[1-(2,4-Dichlorophenyl)-1H-pyrazol-3-yloxymethyl]pyrrolidin-1-yl}-9H-purine]",10 to 1000
8,"CCNC(=O)Nc1ccc2cccc(OC[C@H]3CCCN3c3ncnc4[nH]cnc34)c2c1 [A154, 1-Ethyl-3-{8-[(R)-1-(9H-purin-6-yi)pyrrolidin-2-yl-methoxy]naphthalen-2-yl}urea]",1000 to 10000
9,"CCNC(=O)N1CCN(c2ccc3cccc(OC[C@H]4CCCN4c4ncnc5[nH]cnc45)c3c2)CC1 [A155, N-Ethyl-4-{8-[(R)-1-(9H-purin-6-yl)pyrrolidin-2-yl-methoxy]naphthalen-2-yl}piperazine-1-carboxamide]",1000 to 10000
10,"O=C(NCc1ccco1)N1CCN(c2ccc3cccc(OC[C@H]4CCCN4c4ncnc5[nH]cnc45)c3c2)CC1 [A156, N-(Furan-2-ylmethyl)-4-{8-[(R)-1-(9H-purin-6-yl)-pyrrolidin-2-ylmethoxy]naphthalen-2-yl}-piperazine-1-carboxamide]",1000 to 10000
11,"CCOC(=O)CNC(=O)N1CCN(c2ccc3cccc(OC[C@H]4CCCN4c4ncnc5[nH]cnc45)c3c2)CC1 [A157, Ethyl [(4-{8-[(R)-1-(9H-purin-6-yl)pyrrolidin-2-yl-methoxy]naphthalen-2-yl}piperazine-1-carbonyl)amino]acetate]",1000 to 10000
12,"O=C(O)CNC(=O)N1CCN(c2ccc3cccc(OC[C@H]4CCCN4c4ncnc5[nH]cnc45)c3c2)CC1 [A158, [(4-{8-[(R)-1-(9H-Purin-6-yl)pyrrolidin-2-yl-methoxy]naphthalen-2-yl}piperazine-1-carbonyl)amino]acetic acid]",> 10000
13,"CC(C)(C)OC(=O)N[C@@H](CCC(N)=O)C(=O)Nc1ccc2cccc(OC[C@H]3CCCN3c3ncnc4[nH]cnc34)c2c1 [A161, tert-Butyl ((S)-3-carbamoyl-1-{8-[(R)-1-(9H-purin-6-yl)pyrrolidin-2-ylmethoxy]naphthalen-2-ylcarbamoyl}propyl)carbamate]",1000 to 10000
14,"CC(C)(C)OC(=O)N[C@H](CC(N)=O)C(=O)Nc1ccc2cccc(OC[C@H]3CCCN3c3ncnc4[nH]cnc34)c2c1 [A162, tert-Butyl ((R)-2-carbamoyl-1-{8-[(R)-1-(9H-purin-6-yl)pyrrolidin-2-ylmethoxy]naphthalen-2-ylcarbamoyl}ethyl)carbamate]",1000 to 10000
15,"CC(C)(C)OC(=O)N[C@@H](Cc1c[nH]cn1)C(=O)Nc1ccc2cccc(OC[C@H]3CCCN3c3ncnc4[nH]cnc34)c2c1 [A163, tert-Butyl ((S)-2-(1H-imidazol-4-yl)-1-{8-[(R)-1-(9H-purin-6-yl)pyrrolidin-2-ylmethoxy]-naphthalen-2-ylcarbamoyl}ethyl)carbamate]",1000 to 10000
16,"N[C@@H](Cc1c[nH]cn1)C(=O)Nc1ccc2cccc(OC[C@H]3CCCN3c3ncnc4[nH]cnc34)c2c1 [A164, (S)-2-Amino-3-(1H-imidazol-4-yl)-N-{8-[(R)-1-(9H-purin-6-yl)pyrrolidin-2-ylmethoxy]-naphthalen-2-yl}propionamide * HCl]",1000 to 10000
17,"O=CN1CCN(c2ccc3cccc(OC[C@H]4CCCN4c4ncnc5[nH]cnc45)c3c2)CC1 [A166, 4-{8-[(R)-1-(9H-Purin-6-yl)pyrrolidin-2-ylm-ethoxy]naphthalen-2-yl}piperazine-1-carbaldehyde]",10 to 1000
18,"CC(C)(C)OC(=O)NCC(=O)N1CCN(c2ccc3cccc(OC[C@H]4CCCN4c4ncnc5[nH]cnc45)c3c2)CC1 [A167, tert-Butyl [2-oxo-2-(4-{8-[(R)-1-(9H-purin-6-yl)-pyrrolidin-2-ylmethoxy]naphthalen-2-yl}-piperazin-1-yl)ethyl]carbamate]",1000 to 10000
19,"NCC(=O)N1CCN(c2ccc3cccc(OC[C@H]4CCCN4c4ncnc5[nH]cnc45)c3c2)CC1 [A168, 2-Amino-1-(4-{8-[(R)-1-(9H-purin-6-yl)pyrrolidin-2-ylmethoxy]naphthalen-2-yl}piperazin-1-yl)-ethanone]",1000 to 10000
20,"CN(C)C(=O)CC1CCc2c(OC[C@H]3CCCN3c3ncnc4[nH]cnc34)cccc2C1=O (stereo partly drawn) [A173, N,N-Dimethyl-2-{1-oxo-5-[(R)-1-(9H-purin-6-yl)-pyrrolidin-2-ylmethoxy]-1,2,3,4-tetrahydro-naphthalen-2-yl}acetamide]",10 to 1000
